Measured values taken from patent publication US20240165196A1, “Beta-Lactamase Inhibitors” (VIB VZW, priority 2021, published 2024).

How the values were obtained:
Test in all cases: MIC of ampicillin without/with 30 μg/mL TEM3.2, clinical isolates
Assay type in all cases: cell-based
[1] = test system: E. coli clinical isolate, β-lactamase TEM-ESBL; CTX-M-27; conditions: isolate 2017 Romania, UTI, Urine
Method: (§1) Moreover, the core sequence of peptide TEM3.0 also occurs in the structurally related SHV β-lactamase (FIG. 2E). Although the C-terminal extension residues H and N have been replaced with physicochemically similar R and Q, respectively (FIG. 2H). […] To quantify the synergy between these four peptides and penicillin G, we performed a so-called checkerboard assay, which allows to compare the activity of two test compounds co-incubated (here peptide and a beta-lactam antibiotic), to their individual activities in isolation. The result from the assay is quantified as the Fractional Inhibitory Concentration Index (FICI), and it is generally accepted that values below 0.5 indicate synergistic effects between the compounds. As a control, we generated a peptide using the same design, but based on a previously identified APR from the β-galactosidase enzyme (BGAL)^16 from E. coli (APR=SVIIWSL, peptide sequence=[…]) that has a MIC value>100 μg/mL on E. coli strain UZ_TEM104. We evaluated the synergy of the peptides with penicillin G in clinical E. coli isolates carrying the TEM (FIG. 2I) or SHV enzymes (FIG. 2J). […] As a further control, we also performed a checkerboard assay with an E. coli strain that was resistant to the aminoglycoside kanamycin and observed no synergy between this unrelated antibiotic and our peptides (FIG. 2L), in line with the notion that we are inhibiting a beta-lactamase but not the aminoglycoside degrading enzyme. […] The list of strains included some that harbored only TEM or SHV, but others contained additional Ambler Class A (CTX-M or OXA) or Class B (VIM and NDM) beta-lactamases. […] In contrast, the presence of the NDM-type […], that does have a high affinity for Ampicillin and that is completely distinct in sequence and structure from TEM and SHV, seemed to completely prevent the effect of the peptide on the beta-lactam sensitivity of the strains in which it occurred (see also further). As it appeared that TEM3.2 had activity in most isolates tested, we decided to focus further analysis on this peptide. Furthermore, we tested the performance of the TEM3.2 peptide in a checkerboard assay on strains carrying ESBL mutants of TEM, i.e. extended-spectrum mutations that cluster around the active site of the enzyme, and not in the aggregation prone region targeted by the peptide, and as expected from our mode of action, we observed synergy with ampicillin on these strains (FIG. 2M).
(§2) Determination of MIC values using the broth microdilution in the 96-well plate (BD Biosciences, Belgium) according to the EUCAST guideline, which was performed in 96-well polystyrene flat bottom microtiter plates (BD Biosciences). Briefly, a single colony was inoculated into 5 mL Difco™ Mueller Hinton Broth (BD Biosciences Ref 275730) and grown to the end-exponential growth phase in a shaking incubator at 37° C. Cultures were subsequently diluted to an MacFarland (0.5 optical density) then the culture was diluted to reach 10^6 CFU/mL in fresh MHB medium. 50 μl of different concentration of peptides ranging from 128 to 2 μg/mL were serially diluted to the sterile 96-well plate in MHB. 50 μL of the diluted bacteria in MHB were pipetted into 96-well plates to reach the final volume of 100 μL. The bacteria grown with the maximum concentration of carrier and medium were considered as positive and negative controls, respectively. The plates were statically incubated overnight at 37° C. to allow bacterial growth. OD was measured at 590 nm a multipurpose ultraviolet-visible plate reader, and the absorbance of the growth bacteria was measured using absorbance reader. Bacterial growth was also visually inspected and agreed well with the OD reading.

[2] = test system: E. coli clinical isolate, β-lactamase TEM-ESBL; CTX-M-15; NDM-19; conditions: isolate 2017 Qatar, IAI, Abscess
Method: as §1, §2

[3] = test system: E. coli clinical isolate, β-lactamase TEM-ESBL
Method: as §1, §2

[4] = test system: E. coli clinical isolate, β-lactamase SHV-2; CTX-M-55; VIM-1; conditions: isolate 2017 Turkey, UTI, Urine
Method: as §1, §2

[5] = test system: E. coli clinical isolate, β-lactamase TEM-ESBL; CTX-M-15; NDM-5; conditions: isolate 2017 Qatar, UTI, Urine
Method: as §1, §2

[6] = test system: E. coli clinical isolate, β-lactamase TEM-ESBL; CTX-M-TYPE; conditions: isolate 2017 France, IAI, Peritoneal Fluid
Method: as §1, §2

[7] = test system: E. coli clinical isolate, β-lactamase TEM-1; conditions: isolates year NA, country NA
Method: as §1, §2

[8] = test system: E. coli clinical isolate, β-lactamase TEM-ESBL; CTX-M-24; OXA-48; conditions: isolate 2017 Turkey, IAI, Abscess
Method: as §1, §2

[9] = test system: E. coli clinical isolate, β-lactamase SHV-12; TEM-ESBL; conditions: isolate 2017 Germany, RTI, Bronchi
Method: as §1, §2

Ac-RLTAFLHNRRPRLTAFLRQRR-NH2 [TEM3.2]
MIC ampicillin + 30 μg/mL TEM-3.2 [1]: ≤0.06
MIC ampicillin + 30 μg/mL TEM-3.2 [2]: >64
MIC ampicillin + 30 μg/mL TEM-3.2 ([3]; isolate 2016 Germany, UTI, Urine): ≤0.06
MIC ampicillin + 30 μg/mL TEM-3.2 ([3]; isolate 2016 Lithuania, UTI, Urine): 1
MIC ampicillin + 30 μg/mL TEM-3.2 ([3]; isolate 2017 Israel, UTI, Urine): ≤0.06
MIC ampicillin + 30 μg/mL TEM-3.2 ([3]; isolate 2017 Portugal, RTI, Bronchi): 0.5
MIC ampicillin + 30 μg/mL TEM-3.2 ([3]; isolates 2016 South Africa, IAI, Peritoneal Fluid): ≤0.06
MIC ampicillin + 30 μg/mL TEM-3.2 [4]: ≤0.06
MIC ampicillin + 30 μg/mL TEM-3.2 [5]: >64
MIC ampicillin + 30 μg/mL TEM-3.2 [6]: ≤0.06
MIC ampicillin + 30 μg/mL TEM-3.2 [7]: ≤0.06
MIC ampicillin + 30 μg/mL TEM-3.2 [8]: ≤0.06
MIC ampicillin + 30 μg/mL TEM-3.2 [9]: 0.12
